Results published in ChEMBL document CHEMBL1130843, “Design and synthesis of an orally active GPIIb/IIIa antagonist based on a phenylpiperazine scaffold” (Bioorg Med Chem Lett, 1998).

What was measured:
[1] = biological target: Integrin alpha-IIb/beta-3 (Homo sapiens, UniProt P05106+P08514); assay: Inhibition of fibrinogen binding to platelet glycoprotein alpha IIb beta-3 integrin in ELISA
[2] = species: Homo sapiens; assay: Compound was tested for inhibition of ADP induced platelet aggregation in human platelet-rich plasma; format: functional
[3] = species: Cavia porcellus; assay: Compound was tested for inhibition of ADP induced platelet aggregation in guinea pig; format: functional

Chain of Integrin alpha-IIb/beta-3 (P05106 27-788 limits assumed): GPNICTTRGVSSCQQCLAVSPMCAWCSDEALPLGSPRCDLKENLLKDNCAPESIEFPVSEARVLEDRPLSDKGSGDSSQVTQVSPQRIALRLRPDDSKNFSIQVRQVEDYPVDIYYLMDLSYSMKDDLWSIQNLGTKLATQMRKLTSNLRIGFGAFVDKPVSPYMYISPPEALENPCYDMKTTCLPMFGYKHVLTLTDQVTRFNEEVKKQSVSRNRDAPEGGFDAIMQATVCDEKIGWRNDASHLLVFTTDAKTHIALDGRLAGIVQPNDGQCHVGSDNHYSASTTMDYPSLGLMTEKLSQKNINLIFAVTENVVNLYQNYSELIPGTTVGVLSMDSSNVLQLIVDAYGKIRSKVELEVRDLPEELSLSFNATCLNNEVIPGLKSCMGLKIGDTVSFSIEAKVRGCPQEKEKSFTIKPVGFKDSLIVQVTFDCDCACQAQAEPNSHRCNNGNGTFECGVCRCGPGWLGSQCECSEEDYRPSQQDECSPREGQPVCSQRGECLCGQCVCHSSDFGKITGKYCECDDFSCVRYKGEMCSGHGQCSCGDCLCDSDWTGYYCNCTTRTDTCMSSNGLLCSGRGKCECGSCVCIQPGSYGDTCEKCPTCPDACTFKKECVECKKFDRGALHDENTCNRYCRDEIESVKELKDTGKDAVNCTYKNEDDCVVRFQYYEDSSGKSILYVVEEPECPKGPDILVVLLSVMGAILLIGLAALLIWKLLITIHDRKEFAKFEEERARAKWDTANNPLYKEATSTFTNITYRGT
Chain of Integrin alpha-IIb/beta-3 (P08514 32-887 limits assumed): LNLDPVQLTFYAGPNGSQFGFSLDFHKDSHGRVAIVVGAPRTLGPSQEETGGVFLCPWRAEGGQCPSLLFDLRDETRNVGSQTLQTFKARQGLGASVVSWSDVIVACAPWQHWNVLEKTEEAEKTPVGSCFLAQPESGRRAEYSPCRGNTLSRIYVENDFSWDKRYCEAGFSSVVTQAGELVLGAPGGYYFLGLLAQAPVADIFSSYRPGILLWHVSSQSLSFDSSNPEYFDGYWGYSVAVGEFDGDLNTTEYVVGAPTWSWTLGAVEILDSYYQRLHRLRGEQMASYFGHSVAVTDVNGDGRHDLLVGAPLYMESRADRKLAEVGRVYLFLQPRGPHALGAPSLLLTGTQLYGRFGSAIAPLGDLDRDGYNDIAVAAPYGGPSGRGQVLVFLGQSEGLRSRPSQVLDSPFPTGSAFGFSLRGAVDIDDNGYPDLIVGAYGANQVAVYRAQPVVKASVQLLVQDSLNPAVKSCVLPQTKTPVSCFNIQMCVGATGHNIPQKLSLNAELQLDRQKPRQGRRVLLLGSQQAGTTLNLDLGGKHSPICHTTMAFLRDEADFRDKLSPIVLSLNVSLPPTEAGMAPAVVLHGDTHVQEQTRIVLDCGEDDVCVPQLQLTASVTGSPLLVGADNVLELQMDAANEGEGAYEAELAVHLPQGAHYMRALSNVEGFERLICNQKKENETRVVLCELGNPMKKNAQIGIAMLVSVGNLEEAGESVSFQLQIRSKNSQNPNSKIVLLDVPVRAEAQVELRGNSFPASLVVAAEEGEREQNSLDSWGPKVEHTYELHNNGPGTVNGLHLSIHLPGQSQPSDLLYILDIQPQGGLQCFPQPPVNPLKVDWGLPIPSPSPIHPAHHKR
Chain of Integrin alpha-IIb/beta-3 (P08514 891-1039 limits assumed): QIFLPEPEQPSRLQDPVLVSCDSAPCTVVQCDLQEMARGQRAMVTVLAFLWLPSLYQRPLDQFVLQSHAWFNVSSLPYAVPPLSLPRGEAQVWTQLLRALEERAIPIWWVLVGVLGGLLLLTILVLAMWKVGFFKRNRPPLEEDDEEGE

Compound	IC50 [1] [nM]	IC50 [2] [nM]	IC50 [3] [nM]
N=C(N)c1ccc(CN2CCN(c3ccc(CC(=O)O)cc3)CC2)cc1	2510		
N=C(N)c1ccc(N2CCN(Cc3ccc(CC(=O)O)cc3)CC2)cc1	200		
N=C(N)c1ccc(N2CCN(c3cccc(CC(=O)O)c3)CC2)cc1	1580		
N=C(N)c1ccc(CN2CCN(c3cccc(CC(=O)O)c3)CC2)cc1	39800		
N=C(N)c1ccc(N2CCN(Cc3cccc(OCC(=O)O)c3)CC2)cc1	3980		
CC(C)(Oc1ccc(N2CCN(c3ccc(C(=N)N)cc3)CC2)cc1)C(=O)O	1000		

Results, then the molecule that gave them:

IC50 [1] [nM]	IC50 [2] [nM]	IC50 [3] [nM]	Compound
15800			N=C(N)c1ccc(CN2CCN(c3cccc(OCC(=O)O)c3)CC2)cc1
1260			N=C(N)c1ccc(N2CCN(Cc3cccc(CC(=O)O)c3)CC2)cc1
2000			N=C(N)c1ccc(N2CCN(c3cccc(OCC(=O)O)c3)CC2)cc1
> 10000			N=C(N)c1ccc(N2CCN(c3ccc(OCCCC(=O)O)cc3)CC2)cc1
1000			N=C(N)c1ccc(N2CCN(c3ccc(CC(=O)O)cc3)CC2)cc1
7.94	631	251	N=C(N)c1ccc(N2CCN(C3CCN(CC(=O)O)CC3)CC2)cc1
25.1			N=C(N)c1ccc(N2CCN(c3ccc(CCC(=O)O)cc3)CC2)cc1
1		251	CN(CC(=O)c1ccc(OCC(=O)O)c(OCC(=O)O)c1)C(=O)c1ccc(C(=N)N)cc1
2	1000	3160	N=C(N)c1ccc(N2CCN(c3ccc(OCC(=O)O)cc3)CC2)cc1
